# Reference: patent US20060194837A1, “Tetrahydroisoquinoline compounds” (priority 2004, published 2006)
# Where two headings read alike, the source gives them in different places.
# Key:
# human H3 receptor = biological target: T1, human H3 receptor (Homo sapiens, UniProt Q9Y5N1); assay: H3 receptor binding (N-[3H]-α-methylhistamine displacement); details: membranes of SK-N-MC cells expressing cloned human H3 receptor, 0.8 nM N-[3H]-α-methylhistamine, 60 min at 25° C.
# T1 construct: expressed in transfected cells
# Rat SERT = biological target: T2, Rat SERT (Rattus norvegicus, UniProt P31652); assay: Rat brain SERT binding ([3H]-citalopram displacement); details: rat brain membranes without cerebellum, 0.6 nM [3H]-citalopram, 60 min at 25° C.
# T2 construct: A rat brain without cerebellum (Zivic Laboratories, Inc.—Pittsburgh, Pa.) was homogenized; tissue Zivic Laboratories, Inc; host or cells: rat brain without cerebellum, membranes
# Experimental: The supernatant was removed and re-centrifuged at 15,000 rpm for 30 min. […] Membranes were incubated with 0.6 nM [^3H]-Citalopram plus/minus test compounds for 60 min at 25° C. and harvested by rapid filtration over GF/C glass fiber filters (pretreated with 0.3% polyethylenimine) followed by four washes with ice-cold buffer.
# human SERT = biological target: T3, human SERT (Homo sapiens, UniProt P31645); assay: Human SERT binding (3H-citalopram displacement); details: HEK293 membranes expressing human SERT, rt 1 h
# T3 construct: expressed in transfected cells; host or cells: HEK293 membranes
# Experimental: Homogenized HEK293 (Human Embryonic Kidney) membranes expressing the human SERT were incubated with ^3H-citalopram (SERT) at rt for 1 h in 50 mM Tris, 120 mM NaCl, 5 mM KCl (pH 7.4). […] The membranes were washed and the radioactivity was counted as above.
# T2 sequence (P31652 whole entry): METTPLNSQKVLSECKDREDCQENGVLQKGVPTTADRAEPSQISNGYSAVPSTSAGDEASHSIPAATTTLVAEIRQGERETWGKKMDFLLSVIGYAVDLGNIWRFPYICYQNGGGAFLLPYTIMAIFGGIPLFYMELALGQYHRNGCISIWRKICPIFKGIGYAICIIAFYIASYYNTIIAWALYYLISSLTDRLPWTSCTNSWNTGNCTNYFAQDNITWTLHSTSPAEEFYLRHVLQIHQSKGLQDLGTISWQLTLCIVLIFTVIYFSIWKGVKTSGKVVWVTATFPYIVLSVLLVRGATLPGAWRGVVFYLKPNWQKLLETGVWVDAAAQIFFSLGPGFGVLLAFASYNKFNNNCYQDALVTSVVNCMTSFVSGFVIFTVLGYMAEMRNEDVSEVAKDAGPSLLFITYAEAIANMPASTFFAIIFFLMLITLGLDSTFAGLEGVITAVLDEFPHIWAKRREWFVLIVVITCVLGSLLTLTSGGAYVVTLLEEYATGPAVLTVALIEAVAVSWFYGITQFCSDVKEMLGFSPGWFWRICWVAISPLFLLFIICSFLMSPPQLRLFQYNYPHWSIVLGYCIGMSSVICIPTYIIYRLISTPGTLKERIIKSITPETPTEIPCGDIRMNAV
# T1 sequence (Q9Y5N1 whole entry): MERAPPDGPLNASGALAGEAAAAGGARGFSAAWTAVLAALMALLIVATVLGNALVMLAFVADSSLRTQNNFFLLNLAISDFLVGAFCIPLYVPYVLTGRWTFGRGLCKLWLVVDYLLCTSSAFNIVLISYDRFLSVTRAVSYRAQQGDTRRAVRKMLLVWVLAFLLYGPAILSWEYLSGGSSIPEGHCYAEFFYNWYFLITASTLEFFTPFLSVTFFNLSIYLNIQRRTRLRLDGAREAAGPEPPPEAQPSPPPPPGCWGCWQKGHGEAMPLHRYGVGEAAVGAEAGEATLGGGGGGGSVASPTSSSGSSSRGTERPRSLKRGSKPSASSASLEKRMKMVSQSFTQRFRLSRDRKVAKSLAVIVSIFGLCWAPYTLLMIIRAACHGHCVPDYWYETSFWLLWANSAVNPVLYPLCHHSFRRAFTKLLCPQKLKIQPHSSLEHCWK
# T3 sequence (P31645 whole entry): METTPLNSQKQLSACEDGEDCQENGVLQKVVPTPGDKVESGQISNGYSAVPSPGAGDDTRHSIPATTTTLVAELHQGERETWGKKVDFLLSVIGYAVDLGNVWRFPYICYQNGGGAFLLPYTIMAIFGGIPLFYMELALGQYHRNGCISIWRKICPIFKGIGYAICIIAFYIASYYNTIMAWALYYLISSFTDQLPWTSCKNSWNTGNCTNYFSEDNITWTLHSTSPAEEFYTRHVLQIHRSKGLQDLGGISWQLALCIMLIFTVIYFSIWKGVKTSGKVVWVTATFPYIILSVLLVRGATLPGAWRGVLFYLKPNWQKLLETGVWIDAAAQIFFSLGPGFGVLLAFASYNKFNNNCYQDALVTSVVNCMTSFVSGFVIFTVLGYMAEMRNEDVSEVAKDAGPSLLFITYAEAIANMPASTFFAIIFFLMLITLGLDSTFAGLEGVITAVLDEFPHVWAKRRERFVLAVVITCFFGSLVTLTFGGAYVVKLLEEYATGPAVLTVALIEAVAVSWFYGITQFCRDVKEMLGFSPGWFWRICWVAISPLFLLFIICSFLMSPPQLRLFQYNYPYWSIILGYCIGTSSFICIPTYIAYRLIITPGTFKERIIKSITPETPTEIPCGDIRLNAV
Ki (human H3 receptor),Ki (Rat SERT; read-out: Rat SERT Ki),Ki (human SERT),Structure (SMILES),Ki (Rat SERT; Rat SERT Ki (nM))
11 nM,8 nM,11 nM,"CCN1CCOC(COc2ccc3c(c2)CN(C)CC3c2ccc(OC)cc2)C1 (mixture of isomers) [Example 257, 7-(4-Ethyl-morpholin-2-ylmethoxy)-4-(4-methoxy-phenyl)-2-methyl-1,2,3,4-tetrahydro-isoquinoline]",
13 nM,13 nM,22 nM,"COc1ccc(C2CN(C)Cc3cc(OCC4CN(C5CC5)CCO4)ccc32)cc1 (mixture of isomers) [Example 259, 7-(4-Cyclopropyl-morpholin-2-ylmethoxy)-4-(4-methoxy-phenyl)-2-methyl-1,2,3,4-tetrahydro-isoquinoline]",
3 nM,4 nM,7 nM,"COc1ccc(C2CN(C)Cc3cc(OCCCN4CCC(F)CC4)ccc32)cc1F (racemic) [Example 142, 4-(3-Fluoro-4-methoxy-phenyl)-7-[3-(4-fluoro-piperidin-1-yl)-propoxy]-2-methyl-1,2,3,4-tetrahydro-isoquinoline]",
89 nM,9 nM,13 nM,"COc1ccc(C2CN(C)Cc3cc(OCCCN4CCC(C#N)CC4)ccc32)cc1 (single isomer, unassigned) [Example 37A, 1-{3-[4-(4-Methoxy-phenyl)-2-methyl-1,2,3,4-tetrahydro-isoquinolin-7-yloxy]-propyl}-piperidine-4-carbonitrile]",
70 nM,13 nM,56 nM,"COc1ccc(C2CN(C)Cc3cc(OCCCN4CCN(C(C)=O)CC4)ccc32)cc1 (stereo not drawn) [Example 2, 1-(4-{3-[4-(4-Methoxy-phenyl)-2-methyl-1,2,3,4-tetrahydro-isoquinolin-7-yloxy]-propyl}-piperazin-1-yl)-ethanone]",
4000 nM,33 nM,21 nM,"COc1ccc(C2CN(C)Cc3cc(OCCCN4CCN(C(=O)c5ccncc5)CC4)ccc32)cc1 (stereo not drawn) [Example 4, (4-{3-[4-(4-Methoxy-phenyl)-2-methyl-1,2,3,4-tetrahydro-isoquinolin-7-yloxy]-propyl}-piperazin-1-yl)-pyridin-4-yl-methanone]",
594 nM,27 nM,18 nM,"COc1ccc(C2CN(C)Cc3cc(OCCCN4CCN(C(=O)C(C)C)CC4)ccc32)cc1 (stereo not drawn) [Example 5, 1-(4-{3-[4-(4-Methoxy-phenyl)-2-methyl-1,2,3,4-tetrahydro-isoquinolin-7-yloxy]-propyl}-piperazin-1-yl)-2-methyl-propan-1-one]",
534 nM,15 nM,15 nM,"COc1ccc(C2CN(C)Cc3cc(OCCCN4CCN(C(=O)C5CCC5)CC4)ccc32)cc1 (stereo not drawn) [Example 6, Cyclobutyl-(4-{3-[4-(4-methoxy-phenyl)-2-methyl-1,2,3,4-tetrahydro-isoquinolin-7-yloxy]-propyl}-piperazin-1-yl)-methanone]",
315 nM,14 nM,14 nM,"COc1ccc(C2CN(C)Cc3cc(OCCCN4CCN(C(=O)C5CC5)CC4)ccc32)cc1 (stereo not drawn) [Example 7, Cyclopropyl-(4-{3-[4-(4-methoxy-phenyl)-2-methyl-1,2,3,4-tetrahydro-isoquinolin-7-yloxy]-propyl}-piperazin-1-yl)-methanone]",
59 nM,6 nM,16 nM,"CCOC(=O)N1CCN(CCCOc2ccc3c(c2)CN(C)CC3c2ccc(OC)cc2)CC1 (stereo not drawn) [Example 12, 4-{3-[4-(4-Methoxy-phenyl)-2-methyl-1,2,3,4-tetrahydro-isoquinolin-7-yloxy]-propyl}-piperazine-1-carboxylic acid ethyl ester]",
2400 nM,10 nM,11 nM,"COc1ccc(C2CN(C)Cc3cc(OCCCN4CCN(C(=O)c5cccn5C)CC4)ccc32)cc1 (stereo not drawn) [Example 13, (4-{3-[4-(4-Methoxy-phenyl)-2-methyl-1,2,3,4-tetrahydro-isoquinolin-7-yloxy]-propyl}-piperazin-1-yl)-(1-methyl-1H-pyrrol-2-yl)-methanone]",
2000 nM,19 nM,18 nM,"COc1ccc(C2CN(C)Cc3cc(OCCCN4CCN(C(=O)c5cn(C)cn5)CC4)ccc32)cc1 (stereo not drawn) [Example 14, (4-{3-[4-(4-Methoxy-phenyl)-2-methyl-1,2,3,4-tetrahydro-isoquinolin-7-yloxy]-propyl}-piperazin-1-yl)-(1-methyl-1H-imidazol-4-yl)-methanone]",
273 nM,10 nM,7 nM,"COCCN(CCCOc1ccc2c(c1)CN(C)CC2c1ccc(OC)cc1)CCOC (stereo not drawn) [Example 17, Bis-(2-methoxy-ethyl)-{3-[4-(4-methoxy-phenyl)-2-methyl-1,2,3,4-tetrahydro-isoquinolin-7-yloxy]-propyl}-amine]",
11 nM,3 nM,5 nM,"COc1ccc(C2CN(C)Cc3cc(OCCCN4CCC(CO)CC4)ccc32)cc1 (stereo not drawn) [Example 22, (1-{3-[4-(4-Methoxy-phenyl)-2-methyl-1,2,3,4-tetrahydro-isoquinolin-7-yloxy]-propyl}-piperidin-4-yl)-methanol]",
,11 nM,4 nM,"COc1ccc(C2CN(C)Cc3cc(OCCCN4CCC4)ccc32)cc1 (stereo not drawn) [Example 34, 7-(3-Azetidin-1-yl-propoxy)-4-(4-methoxy-phenyl)-2-methyl-1,2,3,4-tetrahydro-isoquinoline]",
39 nM,,10 nM,"COc1cccc(C2CN(C)Cc3cc(OCC4CCNCC4)ccc32)c1 (stereo not drawn) [Example 241, 4-(3-Methoxy-phenyl)-2-methyl-7-(piperidin-4-ylmethoxy)-1,2,3,4-tetrahydro-isoquinoline]",

Structure (SMILES),Ki (human H3 receptor),Ki (Rat SERT; read-out: Rat SERT Ki),Ki (human SERT),Ki (Rat SERT; Rat SERT Ki (nM))
"CSc1ccc(C2CN(C)Cc3cc(OCCCN4CCC(F)CC4)ccc32)cc1 (single isomer, unassigned) [Example 154, 7-[3-(4-Fluoro-piperidin-1-yl)-propoxy]-2-methyl-4-(4-methylsulfanyl-phenyl)-1,2,3,4-tetrahydro-isoquinoline]",,,4 nM,5 nM
"COc1ccc(C2CN(C)Cc3cc(OCCCN4CCCC(CO)C4)ccc32)cc1 (stereo not drawn) [Example 23, (1-{3-[4-(4-Methoxy-phenyl)-2-methyl-1,2,3,4-tetrahydro-isoquinolin-7-yloxy]-propyl}-piperidin-3-yl)-methanol]",2 nM,2 nM,4 nM,
"CN1Cc2cc(OCCCN3CCC(F)CC3)ccc2C(c2ccc(S(C)(=O)=O)cc2)C1 (stereo not drawn) [Example 51, 7-[3-(4-Fluoro-piperidin-1-yl)-propoxy]-4-(4-methanesulfonyl-phenyl)-2-methyl-1,2,3,4-tetrahydro-isoquinoline]",,34 nM,103 nM,
"CSc1ccc(C2CN(C)Cc3cc(OCCCN4CCC(F)CC4)ccc32)cc1 (stereo not drawn) [Example 52, 7-[3-(4-Fluoro-piperidin-1-yl)-propoxy]-2-methyl-4-(4-methylsulfanyl-phenyl)-1,2,3,4-tetrahydro-isoquinoline]",,3 nM,2 nM,
"COc1ccc(C2CN(C)Cc3cc(OCCCN4CCC(F)CC4)ccc32)cc1Cl (stereo not drawn) [Example 53, 4-(3-Chloro-4-methoxy-phenyl)-7-[3-(4-fluoro-piperidin-1-yl)-propoxy]-2-methyl-1,2,3,4-tetrahydro-isoquinoline]",,5 nM,4 nM,
